Laboratory results taken from patent US20040247577A1, “Method and composition for inhibiting heparanase activity” (priority 2001, published 2004).

Key:
[1] = biological target: T1, mouse heparanase (Mus musculus, UniProt Q6YGZ1); assay: Inhibition of recombinant mouse heparanase activity; assay type: biochemical
T1 construct: heterodimer of the 50 kDa polypeptide (Lys^150-Ile^535) and the 8 kDa peptide (Asp^28-Lys^100); made in house
T1 sequence (Q6YGZ1 150-535): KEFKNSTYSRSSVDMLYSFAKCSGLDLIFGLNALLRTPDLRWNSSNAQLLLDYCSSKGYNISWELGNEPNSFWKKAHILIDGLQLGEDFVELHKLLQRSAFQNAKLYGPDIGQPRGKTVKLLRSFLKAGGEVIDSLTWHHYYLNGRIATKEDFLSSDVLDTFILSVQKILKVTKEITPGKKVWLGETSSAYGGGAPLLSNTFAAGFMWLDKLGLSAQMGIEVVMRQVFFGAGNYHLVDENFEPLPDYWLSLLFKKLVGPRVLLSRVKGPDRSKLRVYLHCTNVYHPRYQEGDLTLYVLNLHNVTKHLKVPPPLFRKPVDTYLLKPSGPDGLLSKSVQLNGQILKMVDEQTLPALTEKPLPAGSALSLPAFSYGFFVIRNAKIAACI
T1 sequence (Q6YGZ1 28-100): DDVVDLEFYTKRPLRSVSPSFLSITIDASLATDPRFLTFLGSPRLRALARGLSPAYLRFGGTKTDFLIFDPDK
Description: (§1) Polypeptide samples were mixed with 25 μl of ^35S-ECM-HSPG (a generous gift from Dr. Israel Vlodavsky, The Hadassah-Hebrew University Hospital, Jerusalem, Israel) in a buffer containing 0.1 M sodium acetate, pH 5.0, 0.01% Triton X-100. After overnight incubation at 37° C., the samples were loaded onto a Superose 12 column (0.7×25 cm, 0.5 ml/min) and the radioactivity of the fractions (0.25 ml/fraction) were measured in a β-scintillation counter. The enzymatic activity was also studied for the ability to degrade HS. For this purpose, ^3H-HS-Sepharose (6.25 nM) was substituted as the substrate in the heparanase reaction, and the radioactivity released into the reaction buffer after overnight incubation was determined.

[2] = biological target: T2, human heparanase (Homo sapiens, UniProt Q9Y251); conditions: cited from earlier work
T2 sequence (Q9Y251 158-543): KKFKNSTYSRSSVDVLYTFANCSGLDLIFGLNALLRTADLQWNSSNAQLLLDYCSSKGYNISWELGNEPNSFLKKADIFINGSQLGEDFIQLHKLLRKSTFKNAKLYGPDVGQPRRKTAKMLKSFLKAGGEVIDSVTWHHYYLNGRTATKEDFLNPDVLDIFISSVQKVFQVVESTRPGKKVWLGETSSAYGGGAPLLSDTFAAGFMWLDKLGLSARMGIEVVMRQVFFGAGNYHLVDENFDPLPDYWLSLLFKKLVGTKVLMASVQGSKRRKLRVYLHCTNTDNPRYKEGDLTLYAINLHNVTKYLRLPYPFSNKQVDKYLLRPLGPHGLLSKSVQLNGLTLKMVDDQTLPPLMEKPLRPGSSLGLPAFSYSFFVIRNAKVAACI
T2 sequence (Q9Y251 36-109): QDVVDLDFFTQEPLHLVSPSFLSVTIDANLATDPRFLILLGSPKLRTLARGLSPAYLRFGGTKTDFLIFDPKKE

[3] = system: lung metastasis; conditions: cited from earlier work; for tumor growth and angiogenesis: Parish et al. 1999; for incidence of lung metastasis: experimental animals
[4] = Enzymatic activity of heparanase on radiolabeled HSPG / HS substrates; assay type: biochemical
Description: as §1, with “Israel Vlodavsky, The Hadassah-Hebrew University Hospital, Jerusalem, Israel) in a buffer containing 0.1 M sodium acetate, pH 5.0, 0.01% Triton X-100.” left out
To test whether the recombinant mouse heparanase is enzymatically active, purified polypeptide was incubated with metabolically radiolabeled HSPG. The reaction products were analyzed by gel filtration on a Superose 12 column.

In the case of Laminarin sulfate, the IC50 [1] is listed as 50 nM, the “inhibition of mouse heparanase activity at 1 μM” value ([1]; 1 μM) is listed as “completely inhibited” and the “human heparanase activity in vitro” value [2] is listed as “inhibit”. For the same molecule, the “tumor growth and angiogenesis” value [3] was “markedly reduced”, the “incidence of lung metastasis” value [3] was “markedly reduced” and the “tumor metastasis in vivo” value ([3]; in vivo) was “inhibit”.

With heparin the “inhibition of mouse heparanase enzyme activity (in words)” value [1] was “inhibited”.

For mannopentaose phosphate sulfate [PI-88], the “tumor growth and angiogenesis” value [3] is listed as “markedly reduced” and the “incidence of lung metastasis” value [3] is listed as “markedly reduced”.

B1: mouse heparanase: Recombinant full-length mouse heparanase polypeptide of 535 amino acids, mature form a heterodimer of 50 kDa and 8 kDa (protein, UniProt Q6YGZ1 1-535, looked up)
chain: MLRLLLLWLWGPLGALAQGAPAGTAPTDDVVDLEFYTKRPLRSVSPSFLSITIDASLATDPRFLTFLGSPRLRALARGLSPAYLRFGGTKTDFLIFDPDKEPTSEERSYWKSQVNHDICRSEPVSAAVLRKLQVEWPFQELLLLREQYQKEFKNSTYSRSSVDMLYSFAKCSGLDLIFGLNALLRTPDLRWNSSNAQLLLDYCSSKGYNISWELGNEPNSFWKKAHILIDGLQLGEDFVELHKLLQRSAFQNAKLYGPDIGQPRGKTVKLLRSFLKAGGEVIDSLTWHHYYLNGRIATKEDFLSSDVLDTFILSVQKILKVTKEITPGKKVWLGETSSAYGGGAPLLSNTFAAGFMWLDKLGLSAQMGIEVVMRQVFFGAGNYHLVDENFEPLPDYWLSLLFKKLVGPRVLLSRVKGPDRSKLRVYLHCTNVYHPRYQEGDLTLYVLNLHNVTKHLKVPPPLFRKPVDTYLLKPSGPDGLLSKSVQLNGQILKMVDEQTLPALTEKPLPAGSALSLPAFSYGFFVIRNAKIAACI
modifications: full-length
notes: Recombinant full-length mouse heparanase polypeptide of 535 amino acids, mature form a heterodimer of 50 kDa and 8 kDa
For B1, the “pH at which the enzyme was most active” value ([4]; ^3H-HS at various pH conditions) was 5.0, the “enzymatic activity at pH 4.0 or 8.0” value ([4]; pH 4.0 or 8.0) was “Little or no enzymatic activity was detected” and the “amount of heparanase giving maximal degradation of 6.25 nmole ^3H-HS” value ([4]; pH 5.0) was 50 ng. The “additional enzyme necessary for comparable activity” value ([4]; pH 7.5 compared with pH 5.0) was ~10 fold and the “degradation of ^35S-HSPG, elution profile on Superose 12 column” value ([4]; undigested substrate eluted in fractions 5-15) was “eluted as low-MW fragments in later fractions (16-35)”.
